ChEMBL document CHEMBL1201862, “PubChem BioAssay data set” (2004)
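Dose response: 5 concentrations. Exposure: 48 h. Format: 96-well plates. Endpoint: linear interpolation; highest concentration if not reached. The concentration for 50% growth inhibition is given as GI50.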 Calls of active or inactive are those of the source. Rule as the data show it: active = GI50 up to about 1.1 µM and inactive = higher.

Experiments:
Experiment in all cases: inhibition of tumour cell growth, NCI panel, 48 h
SK-MEL-5 = test system: SK-MEL-5
ACHN = test system: ACHN
CAKI-1 = test system: CAKI-1
TK-10 = test system: TK-10
DU-145 = test system: DU-145
RPMI-8226 = test system: RPMI-8226
SK-MEL-28 = test system: SK-MEL-28
U-251 = test system: U-251
UACC-62 = test system: UACC-62
NCI-H23 = test system: NCI-H23
Malme-3M = test system: Malme-3M
PC-3 = test system: PC-3
OVCAR-4 = test system: OVCAR-4
NCI-H460 = test system: NCI-H460
OVCAR-3 = test system: OVCAR-3
OVCAR-5 = test system: OVCAR-5
SF-295 = test system: SF-295
BT-549 = test system: BT-549
NCI/ADR-RES = test system: NCI/ADR-RES
HCT-116 = test system: HCT-116
SK-OV-3 = test system: SK-OV-3
COLO 205 = test system: COLO 205
MDA-MB-231 = test system: MDA-MB-231
LOX IMVI = test system: LOX IMVI
A549 = test system: A549
SF-539 = test system: SF-539
786-0 = test system: 786-0
SR = test system: SR
SW-620 = test system: SW-620
KM12 = test system: KM12
UACC-257 = test system: UACC-257
SK-MEL-2 = test system: SK-MEL-2
MDA-MB-435 = test system: MDA-MB-435
A498 = test system: A498
IGROV-1 = test system: IGROV-1
MOLT-4 = test system: MOLT-4
RXF 393 = test system: RXF 393
M14 = test system: M14
HCC 2998 = test system: HCC 2998
K562 = test system: K562
EKVX = test system: EKVX
MCF7 = test system: MCF7
NCI-H226 = test system: NCI-H226
SF-268 = test system: SF-268
OVCAR-8 = test system: OVCAR-8
HT-29 = test system: HT-29
UO-31 = test system: UO-31
HCT-15 = test system: HCT-15
T47D = test system: T47D
SNB-19 = test system: SNB-19
HOP-62 = test system: HOP-62
HL-60 = test system: HL-60
CCRF-CEM = test system: CCRF-CEM
SN12C = test system: SN12C
SNB-75 = test system: SNB-75
MDA-N = test system: MDA-N
NCI-H522 = test system: NCI-H522
HOP-92 = test system: HOP-92
Hs-578T = test system: Hs-578T

Structure (SMILES): CC(C)OC(=O)/C=C/C(=O)O/C=C/[N+](=O)[O-]
- GI50 (SK-MEL-5): 31.6 µM (inactive)
- GI50 (ACHN): > 100 µM (inactive)
- GI50 (CAKI-1): 34 µM (inactive)
- GI50 (TK-10): 32.6 µM (inactive)
- GI50 (DU-145): 30.4 µM (inactive)
- GI50 (RPMI-8226): 15.5 µM (inactive)
- GI50 (SK-MEL-28): 26.7 µM (inactive)
- GI50 (U-251): 21.7 µM (inactive)
- GI50 (UACC-62): 21.3 µM (inactive)
- GI50 (NCI-H23): 26.7 µM (inactive)
- GI50 (Malme-3M): 29.6 µM (inactive)
- GI50 (PC-3): 26.6 µM (inactive)
- GI50 (OVCAR-4): 26.9 µM (inactive)
- GI50 (NCI-H460): 60.7 µM (inactive)
- GI50 (OVCAR-3): 31.7 µM (inactive)
- GI50 (OVCAR-5): 37.6 µM (inactive)
- GI50 (SF-295): 27.9 µM (inactive)
- GI50 (BT-549): 41.8 µM (inactive)
- GI50 (NCI/ADR-RES): 8.55 µM (inactive)
- GI50 (HCT-116): 17.7 µM (inactive)
- GI50 (SK-OV-3): 66.8 µM (inactive)
- GI50 (COLO 205): 16.6 µM (inactive)
- GI50 (MDA-MB-231): 36.5 µM (inactive)
- GI50 (LOX IMVI): 17.5 µM (inactive)
- GI50 (A549): 26.9 µM (inactive)
- GI50 (SF-539): 37.1 µM (inactive)
- GI50 (786-0): 29.2 µM (inactive)
- GI50 (SR): 24.4 µM (inactive)
- GI50 (SW-620): 25.4 µM (inactive)
- GI50 (KM12): 21.5 µM (inactive)
- GI50 (UACC-257): 19.9 µM (inactive)
- GI50 (SK-MEL-2): 20.2 µM (inactive)
- GI50 (MDA-MB-435): 38.9 µM (inactive)
- GI50 (A498): 14.1 µM (inactive)
- GI50 (IGROV-1): 31.6 µM (inactive)
- GI50 (MOLT-4): 15.9 µM (inactive)
- GI50 (RXF 393): 18.3 µM (inactive)
- GI50 (M14): 30 µM (inactive)
- GI50 (HCC 2998): 20.5 µM (inactive)
- GI50 (K562): 7.64 µM (inactive)
- GI50 (EKVX): 18.2 µM (inactive)
- GI50 (MCF7): 23 µM (inactive)
- GI50 (NCI-H226): 39.9 µM (inactive)
- GI50 (SF-268): 24.5 µM (inactive)
- GI50 (OVCAR-8): 15.7 µM (inactive)
- GI50 (HT-29): 24.5 µM (inactive)
- GI50 (UO-31): 36.1 µM (inactive)
- GI50 (HCT-15): 35 µM
- GI50 (T47D): 12.7 µM (inactive)
- GI50 (SNB-19): 31.7 µM (inactive)
- GI50 (HOP-62): 34 µM (inactive)

Structure (SMILES): Cc1cc2c(s1)C(N)CC2=O (centres undefined)
- GI50 (SK-MEL-5): > 100 µM (inactive)
- GI50 (ACHN): > 100 µM (inactive)
- GI50 (CAKI-1): > 100 µM (inactive)
- GI50 (TK-10): > 100 µM (inactive)
- GI50 (DU-145): > 100 µM (inactive)
- GI50 (RPMI-8226): > 100 µM (inactive)
- GI50 (HL-60): > 100 µM (inactive)
- GI50 (SK-MEL-28): > 100 µM (inactive)
- GI50 (U-251): > 100 µM (inactive)
- GI50 (UACC-62): > 100 µM (inactive)
- GI50 (Malme-3M): > 100 µM (inactive)
- GI50 (PC-3): > 100 µM (inactive)
- GI50 (NCI-H460): > 100 µM (inactive)
- GI50 (OVCAR-3): > 100 µM (inactive)
- GI50 (OVCAR-5): > 100 µM (inactive)
- GI50 (BT-549): > 100 µM (inactive)
- GI50 (CCRF-CEM): > 100 µM (inactive)
- GI50 (NCI/ADR-RES): > 100 µM (inactive)
- GI50 (HCT-116): > 100 µM (inactive)
- GI50 (SK-OV-3): > 100 µM (inactive)
- GI50 (COLO 205): > 100 µM (inactive)
- GI50 (MDA-MB-231): > 100 µM (inactive)
- GI50 (SN12C): > 100 µM (inactive)
- GI50 (A549): > 100 µM (inactive)
- GI50 (SF-539): > 100 µM (inactive)
- GI50 (786-0): > 100 µM (inactive)
- GI50 (SR): > 100 µM (inactive)
- GI50 (SW-620): > 100 µM (inactive)
- GI50 (KM12): > 100 µM (inactive)
- GI50 (UACC-257): > 100 µM (inactive)
- GI50 (SK-MEL-2): > 100 µM (inactive)
- GI50 (MDA-MB-435): > 100 µM (inactive)
- GI50 (A498): > 100 µM (inactive)
- GI50 (IGROV-1): > 100 µM (inactive)
- GI50 (SNB-75): > 100 µM (inactive)
- GI50 (MOLT-4): > 100 µM (inactive)
- GI50 (RXF 393): > 100 µM (inactive)
- GI50 (M14): > 100 µM (inactive)
- GI50 (HCC 2998): > 100 µM (inactive)
- GI50 (K562): > 100 µM (inactive)
- GI50 (EKVX): > 100 µM (inactive)
- GI50 (MCF7): > 100 µM (inactive)
- GI50 (MDA-N): > 100 µM (inactive)
- GI50 (SF-268): > 100 µM (inactive)
- GI50 (OVCAR-8): > 100 µM (inactive)
- GI50 (HT-29): > 100 µM (inactive)
- GI50 (UO-31): > 100 µM (inactive)
- GI50 (HCT-15): > 100 µM
- GI50 (T47D): > 100 µM (inactive)
- GI50 (SNB-19): > 100 µM (inactive)
- GI50 (HOP-62): > 100 µM (inactive)

Structure (SMILES): CCCCCC(=O)N[C@@H](c1ccco1)[C@@H](O)C(=O)O[C@H]1C[C@@]2(O)[C@@H](OC(=O)c3ccccc3)[C@@H]3[C@]4(OC(C)=O)CO[C@@H]4C[C@H](O)[C@@]3(C)C(=O)[C@H](OC(C)=O)C(=C1C)C2(C)C
- GI50 (SK-MEL-5): 0.025 µM (active)
- GI50 (ACHN): 0.0406 µM (active)
- GI50 (TK-10): 0.0908 µM (active)
- GI50 (RPMI-8226): < 0.0025 µM (active)
- GI50 (U-251): < 0.0025 µM (active)
- GI50 (NCI-H522): < 0.0025 µM (active)
- GI50 (NCI-H23): < 0.0025 µM (active)
- GI50 (OVCAR-4): 4.32 µM (inactive)
- GI50 (HOP-92): < 0.0025 µM (active)
- GI50 (NCI-H460): < 0.0025 µM (active)
- GI50 (Hs-578T): < 0.0025 µM (active)
- GI50 (CCRF-CEM): < 0.0025 µM (active)
- GI50 (NCI/ADR-RES): 1.75 µM (inactive)
- GI50 (HCT-116): < 0.0025 µM (active)
- GI50 (SK-OV-3): < 0.0025 µM (active)
- GI50 (COLO 205): < 0.0025 µM (active)
- GI50 (SR): < 0.0025 µM (active)
- GI50 (KM12): < 0.0025 µM (active)
- GI50 (MDA-MB-435): < 0.0025 µM (active)
- GI50 (MOLT-4): < 0.0025 µM (active)
- GI50 (RXF 393): < 0.0025 µM (active)
- GI50 (HCC 2998): < 0.0025 µM (active)
- GI50 (EKVX): > 25 µM (inactive)
- GI50 (MCF7): < 0.0025 µM (active)
- GI50 (MDA-N): < 0.0025 µM (active)
- GI50 (SF-268): < 0.0025 µM (active)
- GI50 (OVCAR-8): < 0.0025 µM (active)
- GI50 (HT-29): < 0.0025 µM (active)
- GI50 (UO-31): 0.0575 µM (active)
- GI50 (HCT-15): 0.0295 µM
- GI50 (SNB-19): < 0.0025 µM (active)
- GI50 (HOP-62): < 0.0025 µM (active)
